Results taken from patent US11272841B2, “Indicator fluids, systems, and methods for assessing movement of substances within, to or from a cerebrospinal fluid, brain or spinal cord compartment of a cranio-spinal cavity of a human” (BRAINWIDESOLUTIONS AS, priority 2017, dated 2022).

Key:
[1] = T1 black-blood MRI: percentage change in normalized signal units in CSF and parasagittal dura after intrathecal gadobutrol, cohort of 18 individuals (FIG. 23g-w); type: in vivo, human
Description: It has for long been an unanswered question how a molecular substance escapes from the CSF of the craniospinal compartment to the dural lymphatics and further to extracranial lymph nodes in humans. Experimental studies in animals have indicated a role of lymphatic vessels in dura mater, but this has yet to be shown in human subjects. The present invention addresses removal of molecular substances from the craniospinal compartment in humans. Basis for the various aspects of the invention are novel observations made by the inventors regarding transport of indicator fluids from CSF to lymphatic structures in dura. The inventors have provided novel observations using time series of MRI T1 black-blood sequences after intrathecal administration of the MRI contrast agent gadobutrol. […]
FIG. 23o-s illustrate the determination of signal unit ratios, which is particularly useful when measuring indication signals from MRI. Enrichment of indicator fluid is measured as change in T1-BB signal units. […] The enrichment of CSF tracer is quantified as change in signal units (SU) within the regions of interest that are marked by an open circle. The measured signal units were normalized against the reference to correct for any baseline shift of image greyscale between time points. […]

[2] = human, in vivo
Description: Repeated T1-weighted MRI scans of the intracranial compartment (and neck region for imaging of cervical lymph nodes), either in the presence or absence of the MRI contrast agent gadobutrol (0.5 ml of 1.0 mmol/ml; Gadovist®, Bayer Pharma AG, GE) delivered to the CSF compartment. MRI scans were acquired on a 3 Tesla Philips Ingenia MRI scanner (Philips Medical systems, Best, The Netherlands). The inventors used a dedicated imaging protocol for each region, that was applied to all time points. The following parameters for 3D T1 w imaging of the intracranial compartment were used: repetition time (TR)=5.1 ms (set to minimum), echo time (TE)=2.3 ms (set to minimum), flip angle=8 degrees, field of view=256×256 cm, and matrix=256×256 pixels (reconstructed 512×512). Total 184 over-contiguous slices with 1 mm thickness were sampled and automatically reconstructed to 368 slices and a thickness of 0.5 mm. Each image acquisition lasted 6 minutes and 29 seconds. An automated anatomy recognition protocol based on landmark detection in MRI data (SmartExam™, Philips Medical Systems, Best, The Netherlands) was applied at every time point to secure consistency and reproducibility of the MRI studies. Neck images were obtained in an anatomical standardized coronal plane, using T1 weighted turbo spin echo (TSE) DIXON with the following main image sequence parameters: TR=560 ms, TE=14 ms, flip angle=90 degrees, field of view 250×198 mm, voxel size=1×1×3 mm reconstructed to 0.58×0.58×3 mm^3, gap 0.3 mm, number of slices=30. For detection of neck lymph nodes, we obtained coronal T2 weighted TSE DIXON with TR=ranged 2500-3500 (actual 2500), TE=80 ms, flip angle=90 degrees, field of view 250×200 mm, resolution 0.6×0.79×3 mm^3 reconstructed to 0.58×0.58×3 mm^3, gap 0.3 mm, number of slices=30. Moreover, to ensure same position on the coronal slices between scan times a screen dump showing the placement of the first coronal images was saved and used as a reference for subsequent planning by the radiographer. […]

**Q.** With `O=C([O-])CN1CCN(CC(=O)[O-])CCN([C@H](CO)[C@H](O)CO)CCN(CC(=O)[O-])CC1.[Gd+3]` (racemic) [gadobutrol] as the compound, how does the “Time of peak signal change (normalized T1-BB signal units)” value ([1]; CSF nearby parasagittal dura) read?
**A.** 24 h

**Q.** What about the “Time of peak signal change (normalized T1-BB signal units)” value ([1]; parasagittal dura) of the same compound?
**A.** 24 h

**Q.** And the “Increase of indication signal as compared without contrast” value [2]?
**A.** 29%

**Q.** And the “SU enhancement within cervical LNs as proportion of that in the brain” value [2]?
**A.** about 40%

**Q.** What about the “Time of peak enhancement in T1 SUs after gadobutrol present within CSF” value [2] of the same compound?
**A.** 24 h
